Experimental data published in patent publication US11584744B2 (UNIVERSITY OF WASHINGTON, priority 2017, dated 2023).
Values after ≈ are worked out from the molar mass of the structure shown. Values joined by “and” are separate entries in the source; they are usually repeats but may differ in a detail not shown here. Identical values can stand only once. Like-named read-outs stand apart in the source and are kept apart here.

Key:
T. brucei = T. brucei growth inhibition; assay type: cell-based, Trypanosoma brucei; conditions: read-out: (D) T. brucei EC50
[1] = tested on: G. lamblia (ATCC GL50803); experiment: G. lamblia growth inhibition; assay type: cell-based; conditions: Giardia duodenalis, read-out: (K) G. lamblia (ATCC GL50803) EC50
T. cruzi = T. cruzi growth inhibition; assay type: cell-based, Trypanosoma cruzi; conditions: read-out: (E) T. cruzi EC50
C. parvum = C. parvum growth inhibition; assay type: cell-based, Cryptosporidium parvum; conditions: read-out: (J) C. parvum EC50
MetRS (C. parvum) = MetRS (C. parvum) (Cryptosporidium parvum, UniProt Q5CVN0); experiment: MetRS (C. parvum) enzyme inhibition; assay type: biochemical; conditions: read-out: (C) MetRS (C. parvum) IC50
Sequence of MetRS (C. parvum) (Q5CVN0 entry or part of it): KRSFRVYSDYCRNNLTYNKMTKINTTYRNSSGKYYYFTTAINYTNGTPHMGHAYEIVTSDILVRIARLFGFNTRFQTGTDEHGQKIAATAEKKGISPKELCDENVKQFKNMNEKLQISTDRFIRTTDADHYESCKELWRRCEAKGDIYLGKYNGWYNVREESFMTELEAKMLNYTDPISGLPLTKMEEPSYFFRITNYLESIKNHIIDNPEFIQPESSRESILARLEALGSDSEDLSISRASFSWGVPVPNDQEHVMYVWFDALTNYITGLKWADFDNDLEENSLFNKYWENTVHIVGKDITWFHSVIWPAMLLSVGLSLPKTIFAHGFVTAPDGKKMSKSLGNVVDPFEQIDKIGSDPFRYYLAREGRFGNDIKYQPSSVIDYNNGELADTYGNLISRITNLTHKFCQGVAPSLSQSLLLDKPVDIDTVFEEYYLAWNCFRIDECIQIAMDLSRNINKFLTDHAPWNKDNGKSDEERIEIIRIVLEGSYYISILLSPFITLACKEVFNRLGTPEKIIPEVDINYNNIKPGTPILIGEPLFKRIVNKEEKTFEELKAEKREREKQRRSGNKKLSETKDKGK

[2] = tested on: S. aureus MSSA (ATCC 29213); experiment: MIC susceptibility testing; assay type: cell-based, Staphylococcus aureus; conditions: S. aureus ATCC 29213; for MIC: Staphylococcus aureus, read-out: (F) S. aureus (ATCC 29213) MIC
[3] = tested on: E. faecium VRE (ATCC 51559); experiment: MIC susceptibility testing; assay type: cell-based, Enterococcus faecium; conditions: E. faecium ATCC 51559; for MIC: Enterococcus faecium, read-out: (I) E. faecium (ATCC 51559) MIC
How it was run: (§1)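 CLSI broth microdilution with two-fold compound dilutions, in triplicate; cells added in medium at 1×10^6 CFUs/mL, DMSO ≤0.5%. Media: MHB for S. aureus, CA-MHB for E. coli and E. faecium, CA-MHB plus 3% laked horse blood for S. pyogenes (5% CO2).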

S. pyogenes (ATCC 19615) = experiment: MIC susceptibility testing; assay type: cell-based; conditions: Streptococcus pyogenes, ATCC19615, S. pyogenes ATCC 19615; read-out: (H) S. pyogenes (ATCC 19615) MIC
Excerpt: Media and culture conditions. Mueller Hinton broth (MHB), cation adjusted Mueller Hinton broth (CA-MHB), and Brain Heart Infusion broth (BHI) were purchased from Becton Dickinson (Franklin Lakes, N.J.). Tryptic soy agar (TSA) plates, TSA with 5% sheep blood plates, and CA-MHB with 3% laked horse blood were purchased from Remel (San Diego, Calif.). MHB was used to assay all Staphylococcus aureus strains. CA-MHB was used for Staphylococcus epidermidis, Enterococcus faecalis, Enterococcus faecium, Escherichia coli, and Pseudomonas aeruginosa. CA-MHB supplemented with 3% laked horse blood was used for Streptococcus pneumoniae and Streptococcus pyogenes. Staphylococcus, Enterococcus, Escherichia, and Pseudomonas strains were cultured at 37° C. with ambient air. Streptococcus strains were cultured in 37° C. with 5% CO2. Separate conditions for radiolabeled precursor uptake assays are described below.
Susceptibility testing: Minimum inhibitory concentration (MIC) determinations were performed in triplicate in 96-well round bottom microtiter plates (Corning, Corning N.Y.) as described by the Clinical and Laboratory Standards Institute (CLSI). Serial two-fold dilutions of compounds were added to plates in 50 μL volumes. An additional 50 μL of media containing bacterial cells (1×10^6 CFUs/mL) was then added to each well. Maximum DMSO concentrations were 0.5%. Plates were incubated at 37° C. for at least 18 h before reading the susceptibility result by optical absorbance (OD600) using a BioTek ELx800. The lowest concentration causing ≥90% growth inhibition compared to the untreated control was recorded as the MIC (and also corresponded to the visual MIC). MICs were measured at least twice and the higher value (if different) was recorded herein.

[4] = tested on: S. aureus MRSA (ATCC 33591); experiment: MIC susceptibility testing; assay type: cell-based, Staphylococcus aureus; conditions: MRSA ATCC33591; for MIC: Staphylococcus aureus, read-out: (G) MRSA (ATCC33591) MIC
How it was run: as §1

[5] = target: recombinant S. aureus MetRS enzyme (Staphylococcus aureus, UniProt A0A0H2XID2); experiment: Inhibition of SaMetRS, ATP depletion assay; assay type: biochemical; conditions: read-out: (B) MetRS (S. aureus) IC50
Protocol: Production of recombinant S. aureus MetRSs. The SaMetRS gene (UniProtKB—A0A0H2XID2) was PCR amplified (Sense 5′-[…]-3′ (SEQ ID NO: 1) and Antisense 5′-[…]-3′ (SEQ ID NO:2)) from genomic DNA isolated from S. aureus (ATCC 29213) cultures. The PCR product was then cloned into the AVA0421 plasmid and sequence verified. The expression of recombinant protein was performed as previously described. The N-terminal 6-His fusion proteins were purified by nickel affinity chromatography followed by size exclusion gel chromatography (Superdex 75 26/60; GE Biosciences, Piscataway, N.J.).
Enzyme assays. Inhibition of SaMetRS was measured using the ATP depletion assay as previously described with some modifications. Compounds were pre-incubated for 15 minutes at room temperature in a 96-well plate with 400 μg/mL bulk E. coli tRNA, 25 nM SaMetRS, 0.1 U/mL pyrophosphatase, 0.2 mM spermine, 0.1 mg/mL bovine serum albumin, 2.5 mM dithiothreitol, 25 mM HEPES-KOH pH 7.9, 10 mM MgCl2, 50 mM KCl, and 2% DMSO. Reagents were purchased from Sigma-Aldrich or Roche. The reaction was started with the addition of 150 nM ATP and 20 μM L-methionine and after 120 minute incubation was stopped by the addition of an equal volume (50 μL) of Kinase-Glo® (Promega). Percent inhibition=100×(test compound−AVG low control)/(AVG high control−AVG low control) where the low control is all reagents except the compound and the high control is all reagents except the compounds and L-methionine. IC50 values were calculated by non-linear regression, sigmoidal-dose response, in Prism 3.0.

MetRS (T. brucei) = target: T1, MetRS (T. brucei) (Trypanosoma brucei brucei, UniProt Q38C91); experiment: MetRS (T. brucei) enzyme inhibition; assay type: biochemical
T1 sequence (Q38C91 1-773): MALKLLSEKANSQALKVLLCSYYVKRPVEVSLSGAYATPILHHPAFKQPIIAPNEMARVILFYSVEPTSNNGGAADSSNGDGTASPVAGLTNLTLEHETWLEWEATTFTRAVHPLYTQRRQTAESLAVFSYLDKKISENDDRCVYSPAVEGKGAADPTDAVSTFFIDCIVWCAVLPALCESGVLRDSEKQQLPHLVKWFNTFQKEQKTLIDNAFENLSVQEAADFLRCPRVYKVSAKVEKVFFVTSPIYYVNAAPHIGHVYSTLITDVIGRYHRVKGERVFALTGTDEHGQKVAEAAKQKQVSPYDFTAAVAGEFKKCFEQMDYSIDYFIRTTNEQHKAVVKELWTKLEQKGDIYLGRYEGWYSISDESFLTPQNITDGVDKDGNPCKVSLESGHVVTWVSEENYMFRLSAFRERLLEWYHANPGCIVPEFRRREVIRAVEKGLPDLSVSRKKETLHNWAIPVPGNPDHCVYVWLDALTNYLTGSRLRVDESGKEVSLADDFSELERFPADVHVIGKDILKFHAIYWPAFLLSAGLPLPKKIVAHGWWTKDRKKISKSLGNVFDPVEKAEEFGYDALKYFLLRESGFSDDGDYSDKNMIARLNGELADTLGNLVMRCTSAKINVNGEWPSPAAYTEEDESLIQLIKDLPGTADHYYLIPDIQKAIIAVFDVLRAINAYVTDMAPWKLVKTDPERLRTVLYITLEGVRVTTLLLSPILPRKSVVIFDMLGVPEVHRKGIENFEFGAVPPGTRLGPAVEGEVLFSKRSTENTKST

EC50 (T. brucei; Trypanosoma brucei) [µM]	EC50 (T. brucei)	EC50 [1] [µM]	EC50 (T. cruzi; Trypanosoma cruzi) [µM]	EC50 (T. cruzi) [µM]	EC50 (C. parvum; Cryptosporidium parvum) [µM]	EC50 (C. parvum)	IC50 (MetRS (C. parvum)) [µM]	(F) S. aureus (ATCC 29213) MIC [2]	MIC [2] [mg/L]	MIC (S. pyogenes (ATCC 19615)) [mg/L]	(G) MRSA (ATCC33591) MIC [4] [mg/L]	MIC [4] [mg/L]	Compound	(I) E. faecium (ATCC 51559) MIC [3]	MIC [3] [mg/L]	IC50 [5] [µM]	IC50 (MetRS (T. brucei)) [µM]
0.0309	0.0316 µM	1.2	0.0764	0.114	1.07	1.2 µM and 1.14 µM and > 2 µM	0.122	3.33, μg/ml and 3.16 μg/ml	> 2	–	–	–	COc1ccc(-c2nccn3c(=O)n(Cc4nc5nc(Cl)ccc5[nH]4)cc23)c(Cl)c1 [Compound 2249, 2-({5-chloro-1H-imidazo[4,5-b]pyridin-2-yl}methyl)-8-(2-chloro-4-methoxyphenyl)-2H,3H-imidazo[1,5-a]pyrazin-3-one]	–	–	–	–
0.00212	0.00152 µM and 0.0018 µM and 0.00171 µM	–	–	–	1.6	> 2 µM	< 0.04	–	–	0.847 (≈ 1.76 µM)	0.113	0.104 (≈ 0.216 µM)	COc1cc(Cl)c(Cc2cn(Cc3nc4ccc(Cl)nc4[nH]3)c([S+](C)[O-])n2)cc1OC (stereo not drawn) [Compound 2241, 1-({5-chloro-1H-imidazo[4,5-b]pyridin-2-yl}methyl)-4-[(2-chloro-4,5-dimethoxyphenyl)methyl]-2-methanesulfinyl-1H-imidazole]	0.0206, μg/ml and 0.0160, μg/ml and 0.0189 μg/ml	0.0277 (≈ 0.0577 µM)	–	–
0.00179	–	–	0.183	–	–	–	–	–	1.16 (≈ 2.42 µM)	> 2	–	> 2	CCNC(=O)n1c(Cc2ccc(Cl)cc2Cl)cn(Cc2nc3nc(Cl)ccc3[nH]2)c1=O [Compound 2288, 3-({5-chloro-1H-imidazo[4,5-b]pyridin-2-yl}methyl)-5-[(2,4-dichlorophenyl)methyl]—N-ethyl-2-oxo-2,3-dihydro-1H-imidazole-1-carboxamide]	–	–	–	–
–	–	0.03	–	–	0.129	–	< 0.04	0.424 µg/mL	0.218 (≈ 0.458 µM)	–	–	0.334 (≈ 0.701 µM)	COc1ccc(Cc2cn(Cc3nc4nc(Cl)ccc4[nH]3)c(=O)n2CC(C)(C)O)c(Cl)c1 [Compound 2207, 1-({5-chloro-1H-imidazo[4,5-b]pyridin-2-yl}methyl)-4-[(2-chloro-4-methoxyphenyl)methyl]-3-(2-hydroxy-2-methylpropyl)-2,3-dihydro-1H-imidazol-2-one]	–	–	–	< 0.04
–	–	0.01	–	–	0.144	0.195 µM	< 0.04	–	0.259 (≈ 0.538 µM)	–	–	–	COc1ccc(-c2ccc(NC(C)=O)c3nc(Cc4nc5nc(Cl)ccc5[nH]4)cn23)c(Cl)c1 [Compound 2169, N-[2-({5-chloro-1H-imidazo[4,5-b]pyridin-2-yl}methyl)-5-(2-chloro-4-methoxyphenyl)imidazo[1,2-a]pyridin-8-yl]acetamide]	–	–	–	< 0.04
< 0.00091	0.00078 µM	–	0.00526	0.00744	0.062	–	–	–	0.21 (≈ 0.471 µM)	0.455 (≈ 1.02 µM)	–	–	CCn1c(C(=O)c2ccc(OC)cc2Cl)cn(Cc2nc3ccc(Cl)nc3[nH]2)c1=O [Compound 2296, 1-({5-chloro-1H-imidazo[4,5-b]pyridin-2-yl}methyl)-4-(2-chloro-4-methoxybenzoyl)-3-ethyl-2,3-dihydro-1H-imidazol-2-one]	–	–	–	–
0.00712	–	–	0.0538	0.0797	0.203	–	–	–	2.98 (≈ 6.65 µM)	> 8	–	–	CCn1c(C(O)c2ccc(OC)cc2Cl)cn(Cc2nc3ccc(Cl)nc3[nH]2)c1=O (stereo not drawn) [Compound 2297, 1-({5-chloro-1H-imidazo[4,5-b]pyridin-2-yl}methyl)-4-[(2-chloro-4-methoxyphenyl)(hydroxy)methyl]-3-ethyl-2,3-dihydro-1H-imidazol-2-one]	–	–	–	–
< 0.00091	0.00066 µM	0.01	–	–	–	–	< 0.04	–	–	–	–	< 0.00781	COc1cc(Cl)c(-c2cccc3c2CN(Cc2nc4nc(Cl)ccc4[nH]2)C3=O)cc1OC [Compound 2231, 2-((5-chloro-1H-imidazo[4,5-b]pyridin-2-yl)methyl)-4-(2-chloro-4,5-dimethoxyphenyl)isoindolin-1-one]	–	–	–	–

Compound	EC50 (T. brucei; Trypanosoma brucei) [µM]	EC50 (T. brucei)	EC50 [1] [µM]	EC50 (T. cruzi; Trypanosoma cruzi) [µM]	EC50 (T. cruzi) [µM]	EC50 (C. parvum; Cryptosporidium parvum) [µM]	EC50 (C. parvum)	IC50 (MetRS (C. parvum)) [µM]	(F) S. aureus (ATCC 29213) MIC [2]	MIC [2] [mg/L]	MIC (S. pyogenes (ATCC 19615)) [mg/L]	(G) MRSA (ATCC33591) MIC [4] [mg/L]	MIC [4] [mg/L]	(I) E. faecium (ATCC 51559) MIC [3]	MIC [3] [mg/L]	IC50 [5] [µM]	IC50 (MetRS (T. brucei)) [µM]
C[S+]([O-])c1nc(Cc2ccc(Cl)cc2Cl)cn1Cc1nc2nc(Cl)ccc2[nH]1 (stereo not drawn) [Compound 2110, 1-({5-chloro-1H-imidazo[4,5-b]pyridin-2-yl}methyl)-4-[(2,4-dichlorophenyl)methyl]-2-methanesulfinyl-1H-imidazole]	0.0194	–	–	0.178	–	1.27	–	0.0986	–	0.795 (≈ 1.75 µM)	> 4	–	2.36 (≈ 5.19 µM)	–	1.99 (≈ 4.38 µM)	< 0.025	< 0.04
C[S+]([O-])c1nc(Cc2ccc(Cl)cc2Cl)cn1Cc1nc2ccc(F)nc2[nH]1 (stereo not drawn) [Compound 2120, 4-[(2,4-dichlorophenyl)methyl]-1-({5-fluoro-1H-imidazo[4,5-b]pyridin-2-yl}methyl)-2-methanesulfinyl-1H-imidazole]	0.0136	–	–	0.295	–	1.23	–	< 0.04	–	1.26 (≈ 2.87 µM)	> 4	–	–	–	0.336 (≈ 0.767 µM)	< 0.025	< 0.04
